Measurements as given in patent US20150065421A1, “BASAL INSULIN THERAPY” (SANOFI, priority 2012, published 2015).

How the values were obtained:
[1] = system: people at high risk for vascular disease with either IFG, IGT, or early type 2 diabetes; experiment: ORIGIN trial: cardiovascular, mortality and cancer outcomes; assay type: in vivo, human
Description: The ORIGIN study was an international, multicenter, randomized, open-label (for insulin glargine versus standard care), double-blind (for omega-3 PUFA versus placebo), 2×2 factorial design study to evaluate whether patients with IGT, IFG, or early T2DM, who were at high risk for macrovascular events, could be safely treated with insulin glargine and omega-3 PUFA, and if either insulin glargine-mediated normoglycemia and/or omega-3 PUFA reduce or prevent CV morbidity and/or mortality. Patients were randomized to either receive insulin glargine treatment as a titrated regimen which targeted fasting plasma glucose (FPG) of 95 mg/dL or standard care according to current guidelines for dysglycemia accompanied by appropriate lifestyle modifications. Patients were also independently randomized to receive either ethyl esters of omega-3 PUFA or matching placebo.
Patients were to be randomly assigned to receive either insulin glargine treatment or standard care for their dysglycemia. Patients randomized to the insulin glargine group received Lantus® (insulin glargine 100 U/mL solution) once daily (QD) by subcutaneous (SC) injection in a titrated regimen targeting an FPG of […] (5.3 mmol/L). Nondiabetic patients randomized to standard care were followed for the development of diabetes, and were encouraged to continue to modify diet and physical activity levels. Blood glucose management of diabetic patients (or nondiabetic patients who developed diabetes during the study) randomized to standard care was to be performed according to current (at that time) guidelines. All patients were to be encouraged to appropriately modify their lifestyle.
ORIGIN was an international randomized factorial trial of the effect of titrated basal insulin therapy versus standard care and of omega 3 fasty acid supplements versus placebo on incident CV outcomes. Results of the omega 3 fatty acid arm are reported separately (REF). […] The HbA1c level of people with prior diabetes had to be low enough to minimize the likelihood that insulin would be needed to maintain glycemic control during follow-up if allocated to standard care. Key exclusion criteria included unwillingess or an inability to inject insulin or do capillary glucose testing, a clear indication for, or intolerance to insulin or omega 3 fatty acids, unwillingness to stop thiazolidinediones if allocated to glargine, heart failure, or coronary artery bypass surgery within the prior 4 years with no intervening CV event. The study was approved by each site's ethics committee and all participants provided written informed consent.
(§1) Participants were asked to self-administer daily subcutaneous saline injections and to check their capillary glucose levels during a 10 day run-in period. Adherent participants were then provided with lifestyle advice and randomly allocated to either insulin glargine (Lantus™) or standard approaches to glycaemic control. Participants allocated to insulin glargine who were also taking a thiazolidinedione stopped that medication at the time of randomization; otherwise the insulin glargine was added to their glycemic regimen. These participants were instructed to inject insulin glargine in the evening, starting at 2, 4 or 6 units (depending on their initial FPG) and to increase the dose at least once per week targeting a self-measured FPG level ≦5.3 mmol/l (95 mg/dl) and ≧4 mmol/l (72 mg/dl). […] If participants developed uncontrolled hyperglycemia, investigators were permitted to add rapid-acting insulin. No other glucose-lowering medication could be added or increased. FPG levels were measured in the local laboratory at every visit and the results were regularly reviewed along with the dose of insulin to ensure that insulin was being effectively trirated. People not diagnosed with diabetes by the time of the penultimate study visit down-titrated insulin glargine by 10 units per day and stopped any metformin that was prescribed.
There were 2 co-primary composite CV outcomes. […]

[2] = system: participants without diabetes at randomization (IFG and/or IGT); experiment: ORIGIN trial: new type 2 diabetes in participants without baseline diabetes (oral glucose tolerance tests); assay type: in vivo, human
Description: as §1
There were 2 co-primary composite CV outcomes. The first was CV death, non-fatal MI or non-fatal stroke, and the second was a composite of any of these events or a revascularization procedure or hospitalization for heart failure. Secondary outcomes included a composite microvascular outcome comprising a doubling of serum creatinine from baseline, progression of albuminuria category from normoalbuminuria or microalbuminuria to microalbuminuria or overt nephropathy, renal replacement therapy, renal death, retinal photocoagulation or vitrectomy for retinopathy. They also included new type 2 diabetes developing by the time of the 1st post-trial oral glucose tolerance test in participants without baseline diabetes, and all-cause mortality. Other outcomes included incident cancers, CV hospitalizations, and angina. Cardiovascular and cancer outcomes were reviewed by adjudicators masked to treatment allocation. Episodes of hypoglycaemia since the prior visit were recorded at each visit. Symptomatic hypoglycemia was classified as confirmed if a concomitant recorded capillary glucose level was <3 mmol/L (54 mg/dL). Severe hypoglycemia was defined as hypoglycemia that required assistance plus either prompt recovery with glucose or glucagon or a documented capillary glucose ≦2.0 (36 mg/dL). New diabetes was diagnosed if 2 consecutive FPG levels within a 4-month period were ≧7 mM (126 mg/dL) during the trial; a diagnosis of diabetes was made by a physician and a pharmacologic antidiabetic agent was being taken and there was evidence of either a FPG ≧7 mM (126 mg/dL) or any glucose value ≧11.1 mM (200 mg/dL); either 1 or more capillary glucose levels were ≧11.1 mM (200 mg/dl) and a lab-measured FPG was ≧7 mmol/l (126 mg/dl) or a lab measured random glucose level was ≧11.1 mM (200 mg/dl) during down-titration of glargine insulin; or any FPG was ≧7 mM (126 mg/dl) or 2 hour plasma glucose was ≧11.1 mM (200 mg/dl) during the first oral glucose tolerance test.
Data were analyzed using SAS (version 9.1 for Solarus) according to an intention-to-treat approach described in the protocol and a predefined statistical analysis plan. […] Baseline characteristics were summarized using means and standard deviatons, medians and interquartile ranges, or counts and percentages as appropriate. Time-to-event curves were constructed using product limit estimation and compared using stratified log-rank tests. Hazard ratios for each outcome were calculated using Cox regression models adjusted for the factorial allocation, baseline diabetes status and a history of a prior CV event before randomization as described in the protocol. […]

[3] = glargine group, 6-7 years exposure, p=0.02 vs standard care
[4] = insulin glargine group, median follow-up 6.2 years
[5] = insulin glargine vs standard care

## (Gly A21) Arg (B31) Arg (B32) human insulin [insulin glargine]
[1]; [3]
  patients who developed a new angina (number): 100 patients
  patients who developed a new angina (percent): 1.6%
[1]; [4]
  incidence of the composite outcome of nonfatal MI, nonfatal stroke or CV death (first co-primary outcome): 2.94 /100 person-years
  incidence of the second co-primary outcome (first plus revascularization or heart failure hospitalization): 5.53 /100 person-years
[1]; [5]
  incidence of any cancer or cancer death, difference to standard care: no difference
  mortality, difference to standard care: no statistically significant difference
[1]; insulin glargine vs standard care, 95% CI 0.88, 1.12, P=0.9
  adjusted HR, first co-primary outcome: 0.99
[1]; insulin glargine vs standard care, 95% CI 0.91, 1.10, P=0.99
  adjusted HR, second co-primary outcome: 1.00
[2]; confirmed plus suspected, unconfirmed cases
  reduction of incidence of new diabetes including suspected cases: 30%
[2]; glargine vs standard care, 95% CI 0.58, 0.92, P=0.007
  OR for protocol-defined new diabetes: 0.73
[2]; glargine vs standard care, 95% CI 0.64, 1.00, P=0.052
  OR for new diabetes after 2nd OGTT: 0.80
[2]; insulin glargine group
  incidence of new diabetes including suspected cases: 35%
[2]; insulin glargine group, median 100 days after insulin was stopped
  total rate of diabetes after repeated (2nd) OGTT: 30%
[2]; insulin glargine group, up to 1st post-trial OGTT
  participants developing protocol-defined diabetes: 25%
[2]; up to 1st post-trial OGTT
  less likely to develop protocol-defined diabetes than standard care participants: 27%
